Experimental data from patent US10829427B2, “Naphthoquinones, pro-drugs, and methods of use thereof” (The Board of Regents of the University of Texas System, priority 2015, dated 2020).

What was measured:
Mia PaCa-2 cells = assay: ATP assay (ATP depletion / cell viability) in Mia PaCa-2 cells; type: cell-based, human; conditions: Relative activity compare with β-lapachone in ATP depletion of Mia PaCa-2 cells
Procedure: (§1) In vitro anti-cancer activity of the compound were performed using ATP Assay Kit (Abcam, ab83355) to initially screen, and further performed using 7-day DNA assay.
(§2) Cell culture: endogenous NQO1 overexpressing human MIA PaCa-2 pancreactic and A549 NSCLC cancer cells were obtained (Bey, et al., 2007; Li, et al., 2011). Cancer cells were grown in DMEM with 5% FBS and Mycoplasma free, and cultured at 37° C. in a 5% CO2 95% air humidified atmosphere.
ATP assay: Cells were seeded into each well of a 96-well plate (15000 cells/well) 18 hours ahead of experiment. After aspiration of the media from each well, 100 μl drug-contained media was added instead, and further incubated for 2 hours. After incubation, 100 μl ATP assay kit mixture was added into every well. Following further shaking for 10 minutes with light proof, the data were collected by reading luminescence integrate 1 second per well.

A549 cells = assay: Cell viability in A549 cells (7-day DNA assay); type: cell-based, human; conditions: relative to β-lapachone
Procedure: as §1, §2
DNA assay: Cells were seeded into each well of a 48-well plate (10000 cells/well) 24 hours ahead of experiment. After aspiration of the media from each well, 500 μl drug-contained media was added instead, and further incubated for 2 hours. Drugs were then removed, control growth medium was added, and cells were allowed to grow for an additional 7 days. Drugs were added to medium at a 1:1000 dilution immediately before administration to cells. DNA content (a measure of cell growth) was determined by fluoresence of the DNA dye Hoescht 33258 (Sigma), and read in a Cytofluor fluoresence plate reader. Data were expressed as relative growth with 6 repetitions.

Row | IC50/IC50 (β-lapachone/Compoud) (Mia PaCa-2 cells) | IC50/IC50 (β-lapachone/Compoud) (A549 cells) | SMILES
1 | <0.3 | – | CC(C)OC1=CC(=O)C(=O)c2cccc(OCCN3CCOCC3)c21 [Compound 42, 4-isopropoxy-5-(2-morpholinoethoxy)naphthalene-1,2-dione]
2 | <0.3 | – | Cc1ccc(S(=O)(=O)Nc2cccc3c2C(=O)C(=O)C=C3OC(C)C)cc1 [Compound 17, N-(5-isopropoxy-7,8-dioxo-7,8-dihydronaphthalen-1-yl)-4-methylbenzenesulfonamide]
3 | <0.3 | – | CC(=O)Nc1cccc2c1C(=O)C(=O)C=C2OCCCO [Compound 27, N-(5-(3-hydroxypropoxy)-7,8-dioxo-7,8-dihydronaphthalen-1-yl)acetamide]
4 | 0.3~1 | – | CC(C)OC1=CC(=O)C(=O)c2cccc([N+](=O)[O-])c21 [Compound 7, 4-isopropoxy-5-nitronaphthalene-1,2-dione]
5 | <0.3 | – | CC(C)OC1=CC(=O)C(=O)c2c(NC(=O)C(F)(F)F)cccc21 [Compound 19, 2,2,2-trifluoro-N-(5-isopropoxy-7,8-dioxo-7,8-dihydronaphthalen-1-yl)acetamide]
6 | <0.3 | – | CC(C)OC1=CC(=O)c2cccc(NC(=O)C(F)(F)F)c2C1=O [Compound 20, 2,2,2-trifluoro-N-(7-isopropoxy-5,8-dioxo-5,8-dihydronaphthalen-1-yl)acetamide]
7 | <0.3 | – | CC(C)OC1=CC(=O)C(=O)c2cc3c(cc21)OCO3 [Compound 9, 8-isopropoxynaphtho[2,3-d][1,3]dioxole-5,6-dione]
8 | 0.3~1 | – | O=C1C=C(OC2CCCCC2)c2cccc(Cl)c2C1=O [Compound 16, 8-chloro-4-(cyclohexyloxy)naphthalene-1,2-dione]
9 | <0.3 | – | CS(=O)(=O)Nc1cccc2c1C(=O)C(=O)C=C2OC1CCCCC1 [Compound 26, N-(5-(cyclohexyloxy)-7,8-dioxo-7,8-dihydronaphthalen-1-yl)methanesulfonamide]
10 | <0.3 | – | CC(C)OC1=CC(=O)c2cccc(NS(C)(=O)=O)c2C1=O [Compound 22, N-(7-isopropoxy-5,8-dioxo-5,8-dihydronaphthalen-1-yl)methanesulfonamide]
11 | <0.3 | – | CC(C)OC1=CC(=O)C(=O)c2c(NS(=O)(=O)C(F)(F)F)cccc21 [Compound 23, 1,1,1-trifluoro-N-(5-isopropoxy-7,8-dioxo-7,8-dihydronaphthalen-1-yl)methanesulfonamide]
12 | <0.3 | – | CC(C)OC1=C(Cl)C(=O)C(=O)c2ccccc21 [Compound 13, 3-chloro-4-isopropoxynaphthalene-1,2-dione]
13 | <0.3 | – | O=C1C=C(OC2CCCCC2)c2ccc(Br)cc2C1=O [Compound 2, 7-bromo-4-(cyclohexyloxy)naphthalene-1,2-dione]
14 | <0.3 | – | CC(C)OC1=CC(=O)C(=O)c2ccc(NC(=O)OC(C)(C)C)cc21 [Compound 33, tert-butyl (8-isopropoxy-5,6-dioxo-5,6-dihydronaphthalen-2-yl)carbamate]

Continued, compound first:

Row | SMILES | IC50/IC50 (β-lapachone/Compoud) (Mia PaCa-2 cells) | IC50/IC50 (β-lapachone/Compoud) (A549 cells)
15 | CC(C)OC1=CC(=O)C(=O)c2cccc(Br)c21 [Compound 32, 5-bromo-4-isopropoxynaphthalene-1,2-dione] | <0.3 | –
16 | CCC(CC)OC1=CC(=O)C(=O)c2c(NS(C)(=O)=O)cccc21 [Compound 53, N-(7,8-dioxo-5-(pentan-3-yloxy)-7,8-dihydronaphthalen-1-yl)methanesulfonamide] | <0.3 | –
17 | CC(C)Nc1cccc2c1C(=O)C(OC(C)C)=CC2=O [Compound 31, 2-isopropoxy-8-(isopropylamino)naphthalene-1,4-dione] | <0.3 | –
18 | Cc1cc(C)c2c(c1)C(=O)C(=O)C=C2OC(C)C [Compound 10, 4-isopropoxy-5,7-dimethylnaphthalene-1,2-dione] | <0.3 | –
19 | CC(=O)Nc1cccc2c1C(=O)C(=O)C=C2OCCN1CCOCC1 [Compound 43, N-(5-(2-morpholinoethoxy)-7,8-dioxo-7,8-dihydronaphthalen-1-yl)acetamide] | 0.3~1 | –
20 | CCCCCCCCOC1=CC(=O)C(=O)c2c(NC(C)=O)cccc21 [Compound 51, N-(5-(octyloxy)-7,8-dioxo-7,8-dihydronaphthalen-1-yl)acetamide] | <0.3 | –
21 | CC(C)OC1=CC(=O)C(=O)c2cccc(Cl)c21 [Compound 6, 5-chloro-4-isopropoxynaphthalene-1,2-dione] | <0.3 | –
22 | CC(C)OC1=CC(=O)C(=O)c2ccc(Br)cc21 [Compound 36, 6-bromo-4-isopropoxynaphthalene-1,2-dione] | <0.3 | –
23 | CCCCCCOC1=CC(=O)C(=O)c2c(NS(C)(=O)=O)cccc21 [Compound 54, N-(5-(hexyloxy)-7,8-dioxo-7,8-dihydronaphthalen-1-yl)methanesulfonamide] | <0.3 | –
24 | CCC(CC)OC1=CC(=O)C(=O)c2c(NC(C)=O)cccc21 [Compound 52, N-(7,8-dioxo-5-(pentan-3-yloxy)-7,8-dihydronaphthalen-1-yl)acetamide] | <0.3 | –
25 | COC1=C(C)C(=O)C(=O)c2c(NC(C)=O)cccc21 [Compound 47, N-(5-methoxy-6-methyl-7,8-dioxo-7,8-dihydronaphthalen-1-yl)acetamide] | <0.3 | –
26 | CC(=O)Nc1cccc2c1C(=O)C(OCCN1CCOCC1)=CC2=O [Compound 44, N-(7-(2-morpholinoethoxy)-5,8-dioxo-5,8-dihydronaphthalen-1-yl)acetamide] | 0.3~1 | –
27 | CC(C)OC1=CC(=O)C(=O)c2cc(Br)ccc21 [Compound 1, 7-bromo-4-isopropoxynaphthalene-1,2-dione] | <0.3 | –
28 | CC(C)OC1=CC(=O)C(=O)c2ccc(Cl)cc21 [Compound 34, 6-chloro-4-isopropoxynaphthalene-1,2-dione] | 1~2 | 0.3~1
29 | CC(C)OC1=CC(=O)C(=O)c2cccc(O)c21 [Compound 40, 5-hydroxy-4-isopropoxynaphthalene-1,2-dione] | <0.3 | –
30 | CC(C)OC1=C(Br)C(=O)c2ccccc2C1=O [Compound 12, 2-bromo-3-isopropoxynaphthalene-1,4-dione] | <0.3 | –
31 | CC(C)OC1=C(Br)C(=O)C(=O)c2ccccc21 [Compound 11, 3-bromo-4-isopropoxynaphthalene-1,2-dione] | <0.3 | –
32 | CC(=O)Nc1cccc2c1C(=O)C(OCCN(C)C)=CC2=O [Compound 45, N-(7-(2-(dimethylamino)ethoxy)-5,8-dioxo-5,8-dihydronaphthalen-1-yl)acetamide] | 1~2 | –
33 | COCCOCCOCCOCCOC1=CC(=O)C(=O)c2c(NS(C)(=O)=O)cccc21 [Compound 56, N-(5-(2,5,8,11-tetraoxatridecan-13-yloxy)-7,8-dioxo-7,8-dihydronaphthalen-1-yl)methanesulfonamide] | <0.3 | –
34 | CC(C)OC1=CC(=O)C(=O)c2c(Cl)cccc21 [Compound 14, 8-chloro-4-isopropoxynaphthalene-1,2-dione] | 0.3~1 | –
35 | O=C1C=C(OC2CCCCC2)c2cccc(O)c2C1=O [Compound 39, 4-(cyclohexyloxy)-8-hydroxynaphthalene-1,2-dione] | 0.3~1 | –
36 | CC(=O)Nc1cccc2c1C(=O)C(=O)C=C2OC1CCCCC1 [Compound 25, N-(5-(cyclohexyloxy)-7,8-dioxo-7,8-dihydronaphthalen-1-yl)acetamide] | <0.3 | –
37 | CCCCCCCCOC1=CC(=O)C(=O)c2c(NS(C)(=O)=O)cccc21 [Compound 55, N-(5-(octyloxy)-7,8-dioxo-7,8-dihydronaphthalen-1-yl)methanesulfonamide] | 1~2 | –
38 | COc1cc2c(cc1OC)C(OC(C)C)=CC(=O)C2=O [Compound 8, 4-isopropoxy-6,7-dimethoxynaphthalene-1,2-dione] | <0.3 | –
39 | O=C1C=C(OC2CCCCC2)c2cc(Cl)ccc2C1=O [Compound 35, 6-chloro-4-(cyclohexyloxy)naphthalene-1,2-dione] | 0.3~1 | –
40 | O=C1C=C(OC2CCCCC2)c2ccc(Cl)cc2C1=O [Compound 5, 7-chloro-4-(cyclohexyloxy)naphthalene-1,2-dione] | <0.3 | –
41 | CC(C)OC1=CC(=O)C(=O)c2cc(F)ccc21 [Compound 3, 7-fluoro-4-isopropoxynaphthalene-1,2-dione] | <0.3 | –
42 | CC(C)OC1=CC(=O)C(=O)c2c(N)cccc21 [Compound 29, 8-amino-4-isopropoxynaphthalene-1,2-dione] | <0.3 | –
43 | COC1=CC(=O)C(=O)c2c(NC(C)=O)cccc21 [Compound 46, N-(5-methoxy-7,8-dioxo-7,8-dihydronaphthalen-1-yl)acetamide] | 1~3 | –
44 | CCCCOC1=CC(=O)C(=O)c2c(NC(C)=O)cccc21 [Compound 50, N-(5-butoxy-7,8-dioxo-7,8-dihydronaphthalen-1-yl)acetamide] | 1~2 | –
